Reference: patent US20130165652A1, “NOVEL HETEROCYCLIC COMPOUND, AND COMPOSITION FOR TREATING INFLAMMATORY DISEASES USING SAME” (NEOPHARM CO.,LTD., priority 2010, published 2013)

Legend:
PAR-2 [1] = molecular target: T1, PAR-2 (Homo sapiens, UniProt P55085); assay: Calcium immobilization assay (Calcium-4 assay kit); format: cell-based; settings: HCT-15 cells over-expressing PAR-2; activating peptide (AP) as PAR-2 activating agent; inhibitor treated for 5 minutes before AP
T1 sequence (P55085 26-397): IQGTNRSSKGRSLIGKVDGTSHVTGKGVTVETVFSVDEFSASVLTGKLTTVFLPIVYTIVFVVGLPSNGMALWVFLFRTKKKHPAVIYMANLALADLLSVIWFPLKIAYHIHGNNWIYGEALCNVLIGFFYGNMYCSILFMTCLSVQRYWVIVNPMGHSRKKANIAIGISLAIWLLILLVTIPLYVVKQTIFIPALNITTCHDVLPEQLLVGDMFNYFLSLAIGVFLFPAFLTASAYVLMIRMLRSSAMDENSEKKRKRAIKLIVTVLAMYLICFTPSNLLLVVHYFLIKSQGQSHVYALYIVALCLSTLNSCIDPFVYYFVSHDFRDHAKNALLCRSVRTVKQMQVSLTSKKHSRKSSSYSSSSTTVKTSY
Description: In order to evaluate inhibitory activity of the synthesized materials against the PAR-2, primarily, an assay system in which a concentration of calcium ions in cell may be measured in real time was constructed, and evaluation was conducted using this system. The PAR-2 is a kind of G-protein coupled receptors (GPCR), and when the PAR-2 is activated in cell, phospholipase C-b (PLC-b) decomposes phosphatidylinositol 4,5-bisphosphate (PIP2) into inositol triphosphate (IP3) and diacyl glycerol (DAG) while being activated. IP3 generated at this time stimulates secretion of calcium ions in endoplasmic reticulum (ER), which is a storage of calcium ions in a cell, such that the concentration of calcium ions in the cell is increased. Based on an existing study result, an in vitro screening assay system capable of detecting a material capable of suppressing the concentration of calcium ions in the cell from being increased by activation of PAR-2 was constructed. As a PAR-2 activating agent, activating peptide (AP) was used, and as a reagent for detecting the concentration of calcium ion in the cell, a Calcium-4 assay kit produced (Molecular Probe). […]
The inhibitory activity of the synthesized materials against the PAR-2 was evaluated using the protocol as described above, and profiles of the assay for Compounds 45 and 73 prepared in Examples 1 and 2 were shown in FIGS. 1 and 2.

Cytotoxicity (CC50) = format: cell-based
PAR-2 [2] = molecular target: T1, PAR-2; assay: Confocal microscopy of PAR-2 activation in KNRK-PAR-2 cell line; format: cell-based; settings: KNRK-PAR-2 cells; [trypsin]=11 μM, [SLIGKV]=100 μM, [Compound 45]=200 μM
Description: In order to visually confirm the activation of the PAR-2, a cell line having the following structure was prepared based on existing references, and activation of the PAR-2 was observed using a confocal microscope. As the cell line, Kirsten Murine Sarcoma Virus transformed rat kidney epithelial cell (KNRK cell) was used. In this cell line, the PAR-2 may not be expressed in a normal state. Each of the N-terminals of […] were tagged with Flag epitope, and each of the C-terminals were tagged with Myc epitope, such that a stable transfected cell was constructed. […] In a state in which the PAR-2 was not activated, Flag and Myc were double stained, such that a yellow image was shown in a merged image. However, in the case in which the PAR-2 was activated, a red image was shown while the Flag is separated.

[3] = tested on: oxazolone induced chronic dermatitis; assay: Oxazolone induced chronic dermatitis animal model; format: in vivo, hairless mouse (SKH-1); settings: hairless mice, applied once a day for 3 days
Description: Effects of the selected materials were evaluated using chronic dermatitis animal model. Oxazolone induced chronic dermatitis animal model by continuously applying oxazolone, which is a kind of hapten, to a hairless mouse was used. It was reported that various symptoms of atopic dermatitis relatively accurately appear in recently developed oxazolone model, and the present inventors also confirmed through the prior study that various symptoms of general atopic dermatitis appear similarly to clinically appearing symptoms. In order to construct the chronic dermatitis animal model, 5% oxazolone was applied and sensitized to the hairless mice (SKH-1, 6 weeks old). After 1 week, 0.1% oxazolone was applied every other day for 2 weeks, thereby induced the symptoms of dermatitis. After samples were applied to the dermatitis induced animal once a day for 3 days, changes in various skin functions and a skin thickness were observed. Finally, biopsy was performed on skin tissue, and histological observation was conducted. As a positive control group used in the experiment, 0.05% desonide formulation, which is a steroid having relatively weak potency, was used, and changes in trans-epidermal water loss (TEWL) skin hydration in stratum cornea, and skin thickness were observed.

PAR-2 [4] = molecular target: T1, PAR-2; assay: PathHunter β-arrestin GPCR assay; format: cell-based; parameters: purchased DiscoveRx Corp; settings: β-arrestin accumulation; SKIGKV-NH2 (10 μM); samples 1000 to 50 μM
Description: An in vitro assay protocol capable of detecting activation of the PAR-2 was additionally introduced in addition to a calcium immobilization assay to measure the activity of the selected materials. First, the PAR-2 inhibitory activities of two kinds of samples were measured using a PathHunter™ β-arrestin GPCR assay kit (DiscoveRx Corp.) capable of detecting accumulation of β-arrestin, which is an intracellular reaction firstly generated by the activation of the PAR-2. Experiments were conducted by diluting concentrations of the samples by one-half, ranging from 1000 to 50 μM and SKIGKV-NH2 (10 μM) was treated with the PAR-2 […]. As an experimental result, suppression of β-arrestin was confirmed in both of the two kinds of samples at a concentration of 500 μM. As a measurement result, it was observed that IC50 values were different from those in calcium immobilization assay (See Table 1).

IC50 (PAR-2 [1])	activation of the PAR-2 (Flag/Myc double staining, merged image) (PAR-2 [2])	IC50 (PAR-2 [4])	Structure (SMILES)	CC50 (Cytotoxicity (CC50))	trans-epidermal water loss (TEWL) ([3]; FIG. 5)	skin hydration in stratum cornea ([3]; FIG. 6)	skin thickness ([3]; FIG. 7)
73.8 µM	activation of the PAR-2 was suppressed	339 µM	Cc1cccc(-c2c(C)nc3ccc(C(=O)N4CCCCC4)cn23)c1 [Compound 45]	> 100 µM	effectively restore	effectively restore	statistically significant improvement effect
76.7 µM		401 µM	Cc1nc2ccc(C(=O)N3CCN(C(=O)C4CCCCC4)CC3)cn2c1-c1ccccc1 [Compound 73, (4-(cyclohexanecarbonyl)piperazin-1-yl)(2-methyl-3-phenylimidazo[1,2-a]pyridin-6-yl)methanone]	> 100 µM			
